One assay relates to Caenorhabditis elegans. The assay can be described thus: C. elegans development assay (Ce DA). The following applies: 48 h, read-out: EC90 (motility reduction).
Another assay deals with D. immitis microfilariae. The assay can be described thus: Dog heart worm microfilariae motility assay. Format: cell-based. The settings on record: Dirofilaria immitis, read-out: EC50 (motility inhibition).
The subject of the next assay is H. contortus larvae. The assay can be described thus: H. contortus Larval Development Assay (Hc LDA). The following applies: Haemonchus contortus, read-out: EC50 (motility inhibition).

Structures are written as SMILES.

Experimental for Caenorhabditis elegans: Caenorhabditis elegans (Ce): C. elegans development assay (Ce DA) measures the effect of compounds on developing nematodes. Eggs of C. elegans are deposited in a 384 well plate together with food (E. coli) and the treatment formulated in DMSO. Plates are incubated at 25° C. for 48 h to allow the development of nematodes up to the L4-stage. The effect of compounds is measured as motility reduction. Efficacy is expressed in % motility reduction compared to negative controls.
Experimental for H. contortus larvae: Ruminant Gastrointestinal (H. contortus Larval Development Assay (Hc LDA)):
H.c. eggs isolated from lamb fecal matter are allowed to hatch overnight. Test compounds are diluted in DMSO and added to a 96-well plate containing appropriate media. H.c. larvae are added to each well and plates are incubated for the desired time(s). Motility is assessed using an LCD camera imaging system. Percent motility inhibition values are generated relative to the average of the DMSO-only wells.

Usually EC90 stands for the concentration needed for an effect of 90%. In general, EC50 refers to the concentration that produces a half-maximal response. Turning to `O=C(NN1CCOc2ccccc21)c1cnc2c(-c3cc(Cl)c(F)c(Cl)c3F)cccc2c1N1CCOCC1` [Example 5.23, 8-(3,5-dichloro-2,4-difluoro-phenyl)-N-(2,3-dihydro-1,4-benzoxazin-4-yl)-4-morpholino-quinoline-3-carboxamide], in the assay on Caenorhabditis elegans, the EC90 was under 1 µg/mL. For the same molecule, the figures for the EC50 in the assay on D. immitis microfilariae and in the assay on H. contortus larvae were under 0.1 µg/mL and under 1 µg/mL, respectively.

For `O=C(NN1CCOc2ccccc21)c1cnc2c(-c3cc(Cl)cc(F)c3F)c(F)ccc2c1N1CCOCC1` [Example 5.60, 8-(5-chloro-2,3-difluoro-phenyl)-N-(2,3-dihydro-1,4-benzoxazin-4-yl)-7-fluoro-4-morpholino-quinoline-3-carboxamide], in the assay with Caenorhabditis elegans, the EC90 was under 1 µg/mL.

As for `CN(C)c1c(C(=O)NN2CCOc3ccccc32)cnc2c(-c3cc(Cl)c(F)c(Cl)c3F)c(F)ccc12` [Example 5.56, 8-(3,5-dichloro-2,4-difluoro-phenyl)-N-(2,3-dihydro-1,4-benzoxazin-4-yl)-4-(dimethylamino)-7-fluoro-quinoline-3-carboxamide], in the assay on Caenorhabditis elegans, the EC90 is under 1 µg/mL.

As for `O=C(NN1CCOc2ccccc21)c1cnc2c(-c3cc(F)cc(F)c3F)cccc2c1C1CCOCC1` [Example 5.45, N-(2,3-dihydro-1,4-benzoxazin-4-yl)-4-tetrahydropyran-4-yl-8-(2,3,5-trifluorophenyl)quinoline-3-carboxamide], the EC90 with Caenorhabditis elegans was under 1 µg/mL.

`CON(C)c1c(C(=O)NN2CCOc3ccccc32)cnc2c(-c3cc(Cl)c(F)c(Cl)c3F)c(F)ccc12` [Example 5.62, 8-(3,5-dichloro-2,4-difluoro-phenyl)-N-(2,3-dihydro-1,4-benzoxazin-4-yl)-7-fluoro-4-[methoxy(methyl)amino]quinoline-3-carboxamide]: in the assay on Caenorhabditis elegans, the 90% effect concentration (EC90) is under 1 µg/mL.

With `O=C(NN1CCOc2ccccc21)c1cnc2c(-c3cc(C(F)(F)F)cc(C(F)(F)F)c3)c(F)ccc2c1N1CCOCC1` [Example 5.59, 8-[3,5-bis(trifluoromethyl)phenyl]-N-(2,3-dihydro-1,4-benzoxazin-4-yl)-7-fluoro-4-morpholino-quinoline-3-carboxamide], the EC90 in the assay on Caenorhabditis elegans is under 1 µg/mL.

In the case of `N#Cc1ccc2c(N3CCOCC3)c(C(=O)NN3CCOc4ccccc43)cnc2c1-c1cc(Cl)cc(Cl)c1` [Example 5.35, 7-cyano-8-(3,5-dichlorophenyl)-N-(2,3-dihydro-1,4-benzoxazin-4-yl)-4-morpholino-quinoline-3-carboxamide], in the assay on Caenorhabditis elegans, the EC90 is under 1 µg/mL.

Consider `O=C(NN1CCc2ccccc21)c1cnc2c(-c3cc(Cl)c(F)c(Cl)c3F)c(F)ccc2c1N1CCOCC1` [Example 5.54, 8-(3,5-dichloro-2,4-difluoro-phenyl)-7-fluoro-N-indolin-1-yl-4-morpholino-quinoline-3-carboxamide], for which, in the assay on Caenorhabditis elegans, the EC90 is under 1 µg/mL.

Regarding `O=C(NN1CCOc2ccccc21)c1cnc2c(-c3cc(Cl)cc(C(F)(F)F)c3)c(F)ccc2c1N1CCOCC1` [Example 5.61, 8-[3-chloro-5-(trifluoromethyl)phenyl]-N-(2,3-dihydro-1,4-benzoxazin-4-yl)-7-fluoro-4-morpholino-quinoline-3-carboxamide], in the assay with Caenorhabditis elegans, the EC90 was under 1 µg/mL.

As to `O=C(NN1CCOc2ccccc21)c1cnc2c(-c3cc(F)c(F)c(F)c3)c(F)ccc2c1N1CCOCC1` [Example 5.41, N-(2,3-dihydro-1,4-benzoxazin-4-yl)-7-fluoro-4-morpholino-8-(3,4,5-trifluorophenyl)quinoline-3-carboxamide], in the assay with Caenorhabditis elegans, the EC90 is under 1 µg/mL.

Take `O=C(NN1CCOc2ccccc21)c1cnc2c(-c3ccc(C(F)(F)F)cc3)cccc2c1N1CCOCC1` [Example 5.63, N-(2,3-dihydro-1,4-benzoxazin-4-yl)-4-morpholino-8-[4-(trifluoromethyl)phenyl]quinoline-3-carboxamide]: the EC90 in the assay with Caenorhabditis elegans is under 1 µg/mL.

The values above are taken from patent US12448391B2, “Bicyclic derivatives for treating endoparasites” (Elanco Tiergesundheit AG, priority 2019, dated 2025).
